Patent publication US20260297092A1, “PYRAZOLOPYRIMIDINE DERIVATIVES AS INHIBITORS OF NLRP3” (Takeda Pharmaceutical Company Limited, priority 2023, published 2026)

Key:
[1] = test system: NLRP3 inflammasome (IL-1β production in THP-1 cells); experiment: IL-1β TR-FRET Assay (percentage of inhibition at 300 nM, 6 μM or 10 μM); assay type: cell-based, human; settings: Homo sapiens, LPS priming, ATP activation; for inhibition at 0.3 µM: THP-1, 300 nM, read-out: IL-1β inhibitory rate at 300 nM (%); for inhibition at 6 µM: THP-1, 6 μM, read-out: IL-1β inhibitory rate at 6 μM (%)
Summary of the method: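 Percent inhibition of IL-1β used DMSO wells as 0% and 3 μM MCC-950 wells as full inhibition, with supernatant read by HTRF. Beforehand, IFN-γ-differentiated (25 ng/mL, 24 h), LPS-primed (50 ng/mL, 24 h) THP-1 cells received compound 30 min before inflammasome activation by 20 mM ATP for 2 h.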

[2] = test system: TNF-α (NF-κB pathway, THP-1 cells); experiment: TNF-α Assay (IC50); assay type: cell-based, human; settings: Homo sapiens, 600 ng/mL LPS, 3 hours
Summary of the method: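 Supernatant TNF-α quantified by ELISA after 3 h stimulation with 600 ng/mL LPS at 37 °C, following 30 min compound preincubation. Cells: IFN-differentiated (25 ng/mL, 24 h) THP-1 macrophages, 40,000/well, serum-free. IC50 by sigmoidal fit of % inhibition, with TPCA-1 as 100% control.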

Row | SMILES | IC50 [2] | inhibition at 0.3 µM [1] | inhibition at 6 µM [1]
1 | CCOc1nc2nn(-c3c(C)cc(C)cc3C)cc2c(=O)[nH]1 [Example 106, 6-ethoxy-2-(2,4,6-trimethylphenyl)-2,5-dihydro-4H-pyrazolo[3,4-d]pyrimidin-4-one] | > 30 µM | 97% | 
2 | CCCCc1nc2nn(-c3c(C)cc(C)cc3O)cc2c(=O)[nH]1 [Example 17, 6-butyl-2-(2-hydroxy-4,6-dimethylphenyl)-2,5-dihydro-4H-pyrazolo[3,4-d]pyrimidin-4-one] | > 30 µM | 99% | 
3 | COc1nc2nn(-c3c(C)cc(C4(F)CC4)cc3F)cc2c(=O)[nH]1 [Example 208, 2-[2-fluoro-4-(1-fluorocyclopropyl)-6-methylphenyl]-6-methoxy-2,5-dihydro-4H-pyrazolo[3,4-d]pyrimidin-4-one] | > 30 µM | 102% | 
4 | Cc1nc(-c2nc3nn(-c4c(C)cc(C5CC5)cc4C)cc3c(=O)[nH]2)co1 [Example 272, 2-(4-cyclopropyl-2,6-dimethylphenyl)-6-(2-methyl-1,3-oxazol-4-yl)-2,5-dihydro-4H-pyrazolo[3,4-d]pyrimidin-4-one] | > 30 µM |  | 95%

More lines, main results first:

Row | IC50 [2] | SMILES | inhibition at 0.3 µM [1] | inhibition at 6 µM [1]
5 | > 30 µM | COCc1nc2nn(-c3c(F)cc(C4CC4)cc3C(F)F)cc2c(=O)[nH]1 [Example 308, 2-[4-cyclopropyl-2-(difluoromethyl)-6-fluorophenyl]-6-(methoxymethyl)-2,5-dihydro-4H-pyrazolo[3,4-d]pyrimidin-4-one] |  | 103%
6 | > 30 µM | Cc1cc(C2CC2)cc(C(F)F)c1-n1cc2c(=O)[nH]c(COC(F)F)nc2n1 [Example 283, 2-[4-cyclopropyl-2-(difluoromethyl)-6-methylphenyl]-6-[(difluoromethoxy)methyl]-2,5-dihydro-4H-pyrazolo[3,4-d]pyrimidin-4-one] |  | 99%
7 | > 30 µM | CCOc1nc2nn(-c3c(C)cc(OC(F)F)cc3CC(F)(F)F)cc2c(=O)[nH]1 [Example 168, 2-[4-(difluoromethoxy)-2-methyl-6-(2,2,2-trifluoroethyl)phenyl]-6-ethoxy-2,5-dihydro-4H-pyrazolo[3,4-d]pyrimidin-4-one] | 98% | 
